Measured values published in US5225532A, “Symmetrical bipeptides containing a polyalkylene glycol residue, method of preparation and use in the assay of proteases” (Serbio, priority 1990, dated 1993).
Where a SMILES comes first, the peptide text is derived from it. [ ]: non-standard residue; d: D form. The star is where a group is joined. Cha = N[C@@H](CC1CCCCC1)C(=O)O; dChg = N[C@@H](C(=O)O)C1CCCCC1; pNA = O=[N+]([O-])c1ccc(N*)cc1; dAbu = CC[C@@H](N)C(=O)O; Abu = CC[C@H](N)C(=O)O; Ms = CS(=O)(=O)*

Key:
Type in all cases: biochemical
[1] = molecular target: Plasmin (Homo sapiens, UniProt P00747); experiment: Enzymic hydrolysis of chromogenic substrate by plasmin (ΔOD/min); conditions: equimolar doses, activity of reference CP 3 taken as 100%
Method: (§1) The tripeptide compounds of formula I and their addition salts are useful in the determination of the enzymes involved in hemostasis. In particular, they constitute specific substrates for Factor Xa, plasmin or thrombin. The recommended method of determining these enzymes comprises bringing a given amount of a tripeptide of formula I or of one of its addition salts (at a concentration of the order of 10 mg/ml) into contact, in an appropriate aqueous liquid medium such as a buffered isotonic solution, with a test sample (diluted if appropriate) which may contain the target enzyme, for at least 0.5 h at a temperature of between RT and 40° C., especially 37° C.
(§2) The activity of the tripeptides according to the invention towards enzymes involved in hemostasis was determined by conventional methods such as those described in EP-A-0 280 160 (see page 14), the hydrolysis rate being assessed by the variation in optical density with time (ΔOD/min). The results obtained have been collated in Table II below, where the activity of reference products (CP 1 to CP 3) is specified as being equal to 100% for the sake of convenience.
(§3) Table II below summarizes the results of the comparative tests which were carried out at equimolar doses with the products of the invention and with standard substances, whose activity was taken as being equal to 100%.

[2] = molecular target: Factor Xa (Homo sapiens, UniProt P00742); experiment: Enzymic hydrolysis of chromogenic substrate by Factor Xa (ΔOD/min); conditions: equimolar doses, activity of reference CP 1 taken as 100%
Method: as §1, §2, §3

[3] = molecular target: Thrombin (Homo sapiens, UniProt P00734); experiment: Enzymic hydrolysis of chromogenic substrate by thrombin (ΔOD/min); conditions: for Activity towards Thrombin (hydrolysis rate relative to reference): equimolar doses, activity of reference CP 2 taken as 100%, hydrolysis rate as ΔOD/min
Method: as §1, §2, §3

Factor Xa, sequence (P00742 235-488 limits assumed): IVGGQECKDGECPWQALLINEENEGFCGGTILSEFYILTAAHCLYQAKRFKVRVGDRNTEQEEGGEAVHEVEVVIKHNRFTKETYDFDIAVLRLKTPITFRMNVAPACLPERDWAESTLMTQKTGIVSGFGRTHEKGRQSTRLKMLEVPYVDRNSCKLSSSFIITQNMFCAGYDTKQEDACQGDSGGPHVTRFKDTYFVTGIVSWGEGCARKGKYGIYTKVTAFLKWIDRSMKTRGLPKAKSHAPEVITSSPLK
Factor Xa, sequence (P00742 41-179 partner limits assumed): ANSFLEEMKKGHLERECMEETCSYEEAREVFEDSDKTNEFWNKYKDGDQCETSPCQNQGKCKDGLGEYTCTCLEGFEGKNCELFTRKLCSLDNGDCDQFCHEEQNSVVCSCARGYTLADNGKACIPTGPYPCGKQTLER
Plasmin, sequence (P00747 581-810 limits assumed, species assumed): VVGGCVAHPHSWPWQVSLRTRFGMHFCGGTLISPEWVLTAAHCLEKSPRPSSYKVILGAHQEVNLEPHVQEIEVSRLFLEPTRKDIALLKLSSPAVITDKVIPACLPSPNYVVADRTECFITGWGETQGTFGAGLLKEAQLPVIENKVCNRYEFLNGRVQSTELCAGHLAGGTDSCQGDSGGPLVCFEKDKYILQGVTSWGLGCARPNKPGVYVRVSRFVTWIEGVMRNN
Plasmin, sequence (P00747 97-580 partner limits assumed, species assumed): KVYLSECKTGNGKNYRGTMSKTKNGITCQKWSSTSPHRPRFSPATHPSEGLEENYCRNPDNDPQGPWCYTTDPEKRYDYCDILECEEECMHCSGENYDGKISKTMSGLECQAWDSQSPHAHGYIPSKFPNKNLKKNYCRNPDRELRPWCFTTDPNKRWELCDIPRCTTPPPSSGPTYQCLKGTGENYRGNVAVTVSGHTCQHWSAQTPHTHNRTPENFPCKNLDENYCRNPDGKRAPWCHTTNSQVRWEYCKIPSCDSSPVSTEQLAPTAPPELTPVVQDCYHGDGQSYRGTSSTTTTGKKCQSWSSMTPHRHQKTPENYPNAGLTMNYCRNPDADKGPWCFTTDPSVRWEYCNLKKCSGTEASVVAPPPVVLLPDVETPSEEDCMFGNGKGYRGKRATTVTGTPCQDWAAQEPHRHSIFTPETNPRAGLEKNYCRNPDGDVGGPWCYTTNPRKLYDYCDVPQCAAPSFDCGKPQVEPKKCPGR

Molecule	Activity towards Plasmin (hydrolysis rate relative to reference) [1] [%]	Activity towards Xa (hydrolysis rate relative to reference) [2] [%]	Activity towards Thrombin (hydrolysis rate relative to reference) [3] [%]	Sensitivity towards thrombin compared with reference substrate ([3]; in words, versus CP 1 as printed)
PEG300 (D-Leu-Gly-L-Arg-pNA)2.2AcOH [Ex. 8]	150	60	25	
PEG200 (Gly-L-Pro-L-Arg-pNA)2.2AcOH [Ex. 2]	130	6	34	
PEG200 (D-Glu(OBzl)-L-Pro-L-Arg-pNA)2.2AcOH [Ex. 4]	289	11	45	
PEG200 (D-Nle-L-CHA-L-Arg-pNA)2.2AcOH [Ex. 5]	15	20	110	more sensitive than the reference substrate CP 1
PEG400 (D-Leu-Gly-L-Arg-pNA)2.2AcOH [Ex. 9]	165	74	34	
CC[C@@H](N)C(=O)N[C@@H](CC1CCCCC1)C(=O)N[C@@H](CCCNC(=N)N)C(=O)Nc1ccc([N+](=O)[O-])cc1 [CP 3, HD-Abu-L-CHA-L-Arg-pNA.2AcOH, reference compound] (H-[dAbu]-[Cha]-Arg-pNA)	100	14	10	
PEG600 (CO-Gly-L-Pro-L-Arg-pNA)2 [Ex. 3]	122	10	50	
CC[C@H](NC(=O)[C@H](N)C1CCCCC1)C(=O)N[C@@H](CCCNC(=N)N)C(=O)Nc1ccc([N+](=O)[O-])cc1 [CP 2, HD-CHG-L-Abu-L-Arg-pNA.2AcOH, reference compound] (H-[dChg]-[Abu]-Arg-pNA)	77	14	100	
PEG200 (CO-D-CHA-Gly-L-Arg-pNA)2 [Ex. 7]	112	45	21	
CC(C)C[C@@H](NS(C)(=O)=O)C(=O)NCC(=O)N[C@@H](CCCNC(=N)N)C(=O)Nc1ccc([N+](=O)[O-])cc1 [CP 1, MeSO2D-Leu--GlyL-Arg-pNA.AcOH, reference compound] (Ms-[dL]-Gly-Arg-pNA)	30	100	18	
PEG200 (D-Leu-Gly-L-Arg-pNA)2.2AcOH [Ex. 6]	188	105	23	
